pIC50: −log10 of the molar value. Like-named read-outs stand apart in the source and are kept apart here.
Tests used:
[1] = target: IDH1 wt/IDH1 R132H heterodimer (Homo sapiens (Human), UniProt O75874, R132H); assay: In vitro assay for IDH1m R132H inhibitors, IDH1 wt/IDH1 R132H heterodimer, NADPH depletion (diaphorase/resazurin); type: biochemical
How it was run: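 Read-out is NADPH left after α-KG reduction to 2-HG, measured via resorufin fluorescence after 5 min diaphorase/resazurin step at 25° C. Enzyme is sf9-expressed IDH1wt-his/IDH1R132H-flag heterodimer, pre-incubated 1 hr at room temperature with compound and cofactor. IC50s from DMSO stocks diluted 1:50.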

[2] = target: IDH1-R132H homodimer enzyme (Homo sapiens (Human), UniProt O75874, R132H); assay: In vitro assay IDH1-R132H homodimer, NADPH depletion assay with NADPH/NADP preincubation; type: biochemical; settings: 5 μM NADPH and 37.5 μM NADP
Sequence of IDH1-R132H homodimer enzyme (O75874 whole entry R132H): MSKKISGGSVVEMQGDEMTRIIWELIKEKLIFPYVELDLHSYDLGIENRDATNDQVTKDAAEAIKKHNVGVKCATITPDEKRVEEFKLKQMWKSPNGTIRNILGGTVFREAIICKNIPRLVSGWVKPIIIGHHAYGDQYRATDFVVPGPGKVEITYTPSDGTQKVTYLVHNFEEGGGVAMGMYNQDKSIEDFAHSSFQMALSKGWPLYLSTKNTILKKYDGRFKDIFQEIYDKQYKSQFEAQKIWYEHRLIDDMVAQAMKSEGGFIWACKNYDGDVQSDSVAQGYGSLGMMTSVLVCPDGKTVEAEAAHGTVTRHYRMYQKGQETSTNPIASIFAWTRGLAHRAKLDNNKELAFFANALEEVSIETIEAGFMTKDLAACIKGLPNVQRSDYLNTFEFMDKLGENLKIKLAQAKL
Experimental: The following describes the experimental procedures that can be used to obtain data on columns 3 and 5 of Table 5.
A test compound is prepared as 10 mM stock in DMSO and diluted to 50× final concentration in DMSO, for a 50 μl reaction mixture. IDH enzyme activity converting alpha-ketoglutarate to 2-hydroxyglutaric acid is measured using a NADPH depletion assay. In the assay the remaining cofactor is measured at the end of the reaction with the addition of a catalytic excess of diaphorase and resazurin, to generate a fluorescent signal in proportion to the amount of NADPH remaining. […] The reaction is started with the addition of 10 μl of Substrate Mix ([…], 5 mM alpha-ketoglutarate, in Assay Buffer) and the mixture is incubated for 60 minutes at room temperature.

[3] = target: IDH2 R140Q (Homo sapiens (Human), UniProt P48735, R140Q); assay: In vitro assay for IDH2m R140Q inhibitors, cofactor depletion assay; type: biochemical; settings: IDH2 R140Q enzyme
Sequence of IDH2 R140Q (P48735 40-452 R140Q): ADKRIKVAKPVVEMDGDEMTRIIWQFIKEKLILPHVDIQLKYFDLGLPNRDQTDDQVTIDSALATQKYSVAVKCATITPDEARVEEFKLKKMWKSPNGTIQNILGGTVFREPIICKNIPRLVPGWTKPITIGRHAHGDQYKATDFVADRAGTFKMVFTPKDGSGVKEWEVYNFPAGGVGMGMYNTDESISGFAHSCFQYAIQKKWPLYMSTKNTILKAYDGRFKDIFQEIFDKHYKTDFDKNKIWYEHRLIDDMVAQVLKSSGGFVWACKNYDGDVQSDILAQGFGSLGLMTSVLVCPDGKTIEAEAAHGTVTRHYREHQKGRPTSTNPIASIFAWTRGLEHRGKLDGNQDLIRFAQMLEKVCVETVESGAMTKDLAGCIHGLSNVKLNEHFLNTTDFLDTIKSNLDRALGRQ
How it was run: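 Remaining cofactor measured fluorimetrically: diaphorase/resazurin Stop Mix […], halting the reaction. Before that, mutant enzyme and compound sat 1 h at RT, then substrate mix (4 μM NADPH, 1.6 mM α-KG) was added for 16 h at RT.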

[4] = system: U87MG pLVX-IDH2 R140Q-neo cells; assay: U87MG pLVX-IDH2 R140Q-neo cell based assay, 2-HG by LC-MS; settings: Homo sapiens, U-87 MG
[5] = system: Neurosphere cells (TS603); assay: Cellular assay for IDH1m R132H inhibitors, 2-HG by LC-MS in neurosphere cells (TS603); type: cell-based; settings: 2-HG in media at 48 hours
Experimental: Cellular Assay for IDH1m R132H Inhibitors.
The following describes the experimental procedures that can be used to obtain data in column 4 of Table 5.
Neurosphere cells (TS603) are grown at 37 C in 5% CO2 in Stem Cell Technologies NeuroCult™ NS-A media supplemented with 1% Primocin, 1% Normocin, 0.0002% Heparin, 20 ng/mL EGF and 10 ng/mL bFGF. Cells are harvested, pelleted and resuspended in Accumax for cell dissociation and counting. Cells are counted and then resuspended in NeuroCult media with 2× heparin, EGF and bFGF at 4 million cells/10 mL media. 100 μl of cell solution are plated in each well of a 96 well with the exception of columns 1 and 12. Columns 1 and 12 contain 200 μL PBS. Compound dose responses are set up at a 2× concentration in Neurocult media without heparin, EGF and bFGF. The final concentration of DMSO is 0.25%. DMSO only control wells are plated in row H. The plates are then placed in the incubator for 48 hours. At 48 hours, 100 μl of media is removed from each well and analyzed by LC-MS for 2-HG concentrations. The cell plate is placed back in the incubator for another 24 hours. At 72 hours post compound addition, 10 mL/plate of Promega Cell Titer Glo reagent is thawed and mixed. The cell plate is removed from the incubator and allowed to equilibrate to room temperature. Then 100 μl of Promega Cell Titer Glo reagent is added to each well of media. The cell plate is then placed on an orbital shaker for 10 minutes and then allowed to sit at room temperature for 20 minutes. The plate is then read for luminescence with an integration time of 500 ms.

[6] = system: HT1080 cells; assay: Cellular assay for IDH1m R132C inhibitors, 2-HG by LC-MS in HT1080 cells; type: cell-based; settings: Homo sapiens, HT-1080
Experimental: The following describes the experimental procedures that can be used to obtain data on column 5 of Table 4.
Cells (HT1080 or U87MG) are grown in T125 flasks in DMEM containing 10% FBS, 1× penicillin/streptomycin and 500 ug/mL G418 (present in U87MG cells only). They are harvested by trypsin and seeded into 96 well white bottom plates at a density of 5000 cell/well in 100 ul/well in DMEM with 10% FBS. No cells are placed in columns 1 and 12. Cells are incubated overnight at 37° C. in 5% CO2. The next day test compounds are made up at 2× the final concentration and 100 ul are added to each cell well. The final concentration of DMSO is 0.2% and the DMSO control wells are plated in row G. The plates are then placed in the incubator for 48 hours. At 48 hours, 100 ul of media is removed from each well and analyzed by LC-MS for 2-HG concentrations. The cell plate is placed back in the incubator for another 24 hours. At 72 hours post compound addition, 10 mL/plate of Promega Cell Titer Glo reagent is thawed and mixed. The cell plate is removed from the incubator and allowed to equilibrate to room temperature. Then 100 ul of Promega Cell Titer Glo reagent is added to each well of media. The cell plate is then placed on an orbital shaker for 10 minutes and then allowed to sit at room temperature for 20 minutes. The plate is then read for luminescence with an integration time of 500 ms.
HT1080 cells are maintained in RPMI containing 10% FBS, 1× penicillin/streptomycin. […] The next day compounds are prepared in 100% DMSO and then diluted in media for a final concentration of 0.2% DMSO. Media is removed from the cell plates and 200 μL of the compound dilutions are added to each well. […] The cell plates are then allowed to incubate another 24 hours.

[7] = IDH1 wt/R132H heterodimer, NADPH/NADP, not saturated, read-out: IDH1 wt/R132H NADPH/NADP IC50 not saturated
[8] = IDH1 wt/IDH1 R132H heterodimer, 300 μM NADP (saturated), read-out: IDH1 wt/R132H NADPH/NADP IC50 saturated

Sequence of IDH1 wt/IDH1 R132H heterodimer (O75874 whole entry R132H): as the sequence (O75874 whole entry R132H) above
Sequence of IDH1 wt/IDH1 R132H heterodimer (O75874 whole entry, stated change not applied): as the sequence (O75874 whole entry R132H) above, with H132R counted along it

| SMILES | pIC50 [1, 7] | pIC50 [2] | pIC50 [3] | pIC50 [4] | pIC50 [5] | pIC50 [6] | pIC50 [1, 8] |
| --- | --- | --- | --- | --- | --- | --- | --- |
| Fc1cc(F)cc(Nc2nc(NC3CC(F)(F)C3)nc(-c3cncc(Cl)n3)n2)c1 [Compound 120] | > 7.30 | > 7.30 | > 7.30 | > 7.30 | > 7.30 | – | – |
| CC(Nc1nc(NC(C)C(F)(F)F)nc(-c2cccc(Cl)n2)n1)C(F)(F)F (stereo not shown) [Compound 130] | – | – | – | > 7.30 | – | > 7.30 | – |
| FC1(F)CCC(Nc2nc(NC3CCC(F)(F)C3)nc(-c3cncc(C(F)(F)F)n3)n2)C1 (stereo not shown) [Compound 138] | > 7.30 | > 7.30 | > 7.30 | > 7.30 | > 7.30 | – | – |
| FC1(F)CC[C@@H](Nc2nc(Nc3ccnc(C(F)(F)F)c3)nc(-c3cccc(C(F)(F)F)n3)n2)C1 [Compound 172] | > 7.30 | > 7.30 | > 7.30 | > 7.30 | > 7.30 | – | – |
| FC1(F)CCC(Nc2nc(Nc3ccnc(C(F)(F)F)c3)nc(-n3ccc(C(F)(F)F)n3)n2)C1 (stereo not shown) [Compound 173] | > 7.30 | > 7.30 | > 7.30 | > 7.30 | > 7.30 | – | – |
| CC(Nc1nc(Nc2ccnc(C(F)(F)F)c2)nc(-n2ccc(C(F)(F)F)n2)n1)C(F)(F)F (stereo not shown) [Compound 177] | > 7.30 | 7.00 to 7.30 | > 7.30 | > 7.30 | > 7.30 | – | – |
| N#CC1(c2cc(Nc3nc(NC4CCC(F)(F)C4)nc(-n4ccc(C(F)(F)F)n4)n3)ccn2)CC1 (stereo not shown) [Compound 185] | > 7.30 | > 7.30 | > 7.30 | > 7.30 | > 7.30 | – | – |
| FC1(F)CCC(Nc2nc(NC3CCC(F)(F)C3)nc(-c3cccc(C4CC4)n3)n2)C1 (stereo not shown) [Compound 258] | 6.00 to 7.00 | – | – | > 7.30 | – | < 6.00 | – |
| Cn1cc(-c2nc(NC3CCC(F)(F)CC3)nc(NC3CCC(F)(F)CC3)n2)c(C(F)(F)F)n1 [Compound 275] | 6.00 to 7.00 | < 6.00 | – | – | – | – | – |
| CC(F)(F)c1nc(-c2nc(NC3CCC(F)(F)CC3)nc(NC3CCC(F)(F)CC3)n2)cs1 [Compound 283] | 6.00 to 7.00 | < 6.00 | 6.00 to 7.00 | 6.00 to 7.00 | – | – | – |
| C[C@@H](Nc1nc(N[C@H](C)C2CC2)nc(-c2cc(F)ccc2F)n1)C1CC1 [Compound 292] | 6.00 to 7.00 | – | – | – | – | < 6.00 | – |
| FC(F)c1ccnc(-c2nc(NC3CCC(F)(F)CC3)nc(NC3CCC(F)(F)CC3)n2)n1 [Compound 308] | < 6.00 | < 6.00 | 6.00 to 7.00 | 6.00 to 7.00 | 6.00 to 7.00 | – | – |
| Oc1ccc(F)c(-c2nc(NC3CCC(F)(F)CC3)nc(NC3CCC(F)(F)CC3)n2)n1 [Compound 309] | < 6.00 | < 6.00 | – | – | – | – | – |
| COCCc1ccnc(-c2nc(NC3CCC(F)(F)CC3)nc(NC3CCC(F)(F)CC3)n2)n1 [Compound 315] | < 6.00 | < 6.00 | – | – | – | – | – |
| Cc1nc(-c2nc(NC3CC(F)(F)C3)nc(NC3CC(F)(F)C3)n2)c[nH]1 [Compound 317] | < 6.00 | < 6.00 | – | – | – | – | – |
| Cc1nc(-c2nc(NC3CCC(F)(F)C3)nc(NC3CCC(F)(F)C3)n2)c[nH]1 (stereo not shown) [Compound 319] | < 6.00 | < 6.00 | – | – | – | – | – |

| SMILES | pIC50 [1, 7] | pIC50 [2] | pIC50 [3] | pIC50 [4] | pIC50 [5] | pIC50 [6] | pIC50 [1, 8] |
| --- | --- | --- | --- | --- | --- | --- | --- |
| Cc1nsc(-c2nc(NC3CCC(F)(F)CC3)nc(NC3CCC(F)(F)CC3)n2)n1 [Compound 328] | < 6.00 | < 6.00 | – | – | – | – | – |
| Cc1nc(-c2nc(NC3CCC(F)(F)CC3)nc(NC3CCC(F)(F)CC3)n2)c[nH]1 [Compound 332] | < 6.00 | < 6.00 | – | – | – | – | – |
| FC1(F)CCC(Nc2nc(NC3CCC(F)(F)CC3)nc(-c3nc(-c4ccccc4)ns3)n2)CC1 [Compound 333] | < 6.00 | < 6.00 | – | – | – | – | – |
| Fc1cc(F)cc(Nc2nc(N[C@H]3CCC(F)(F)C3)nc(-c3cncc(C(F)(F)F)n3)n2)c1 [Compound 368] | – | > 7.30 | > 7.30 | > 7.30 | > 7.30 | – | > 7.30 |
| N#CC1(c2cc(Nc3nc(N[C@H]4CCC(F)(F)C4)nc(-c4cncc(C(F)(F)F)n4)n3)ccn2)CC1 [Compound 373] | – | – | > 7.30 | > 7.30 | > 7.30 | – | > 7.30 |
| CC(F)(F)c1cncc(-c2nc(NC3CCC(F)(F)CC3)nc(NC3CCC(F)(F)CC3)n2)n1 [Compound 374] | – | – | > 7.30 | > 7.30 | > 7.30 | – | 7.00 to 7.30 |
| N#CC1(c2cc(Nc3nc(N[C@@H]4CCC(F)(F)C4)nc(-c4nccc(C(F)(F)F)n4)n3)ccn2)CC1 [Compound 375] | – | – | > 7.30 | > 7.30 | > 7.30 | – | 6.00 to 7.00 |
| FC(F)(F)c1cc(Nc2nc(NCC3CC3)nc(-c3nc(C(F)(F)F)cs3)n2)ccn1 [Compound 379] | – | – | > 7.30 | > 7.30 | > 7.30 | – | 7.00 to 7.30 |
| FC1(F)CC2(CC(Nc3nc(Nc4ccnc(C(F)(F)F)c4)nc(-c4cncc(C(F)(F)F)n4)n3)C2)C1 [Compound 380] | – | – | > 7.30 | > 7.30 | > 7.30 | – | 6.00 to 7.00 |
| C[C@@H](Nc1nc(Nc2ccnc(-c3ccc(C#N)cc3)c2)nc(-c2cccc(C(F)(F)F)n2)n1)C(F)(F)F [Compound 383] | – | – | > 7.30 | > 7.30 | > 7.30 | – | 6.00 to 7.00 |
| FC(F)(F)c1cc(Nc2nc(NCC3CC3)nc(-c3cncc(C(F)(F)F)n3)n2)ccn1 [Compound 387] | – | – | > 7.30 | > 7.30 | > 7.30 | – | 6.00 to 7.00 |
| FC1(F)CCC(Nc2nc(NC3CCC(F)(F)C3)nc(-c3cccc(C(F)(F)F)n3)n2)CC1 (stereo not shown) [Compound 395] | – | – | > 7.30 | > 7.30 | > 7.30 | – | > 7.30 |
| FC1(F)CC[C@@H](Nc2nc(N[C@H]3CCC(F)(F)C3)nc(-c3cncc(C(F)(F)F)n3)n2)C1 [Compound 399] | – | – | > 7.30 | > 7.30 | > 7.30 | – | > 7.30 |
| FC1(F)CC[C@H](Nc2nc(N[C@H]3CCC(F)(F)C3)nc(-c3cncc(C(F)(F)F)n3)n2)C1 [Compound 406] | – | – | > 7.30 | > 7.30 | > 7.30 | – | > 7.30 |
| FC1(F)CCC(Nc2cc(NC3CCC(F)(F)CC3)nc(-c3cncc(C(F)(F)F)n3)n2)CC1 [Compound 421] | 6.00 to 7.00 | 6.00 to 7.00 | – | – | – | – | – |

— patent publication US10028961B2, “Therapeutically active compounds and their methods of use” (AGIOS PHARMACEUTICALS, INC., priority 2013, dated 2018)
